What follows are molecules tested against full-length human HPK1 (MAP4K1) (Homo sapiens (Human), UniProt Q92918) (assay: HPK1 Kinase Assay (Biochemical Assay), ADP-Glo). Settings: GST-HPK1 3.2 nM, 10 μM ATP, MBP substrate, read-out: HPK1 enzymatic IC50.
Source text: HPK1 Kinase Assay (Biochemical Assay).
A recombinant fusion protein consisting of full-length human HPK1 (MAP4K1) with an N-terminal Glutatione S-transferase (GST) tag was produced in insect cells Sf21 using the baculovirus expression system. GST-HPK1 protein was purified from cell lysates by glutathione Sepharose affinity chromatography. The assay is run in three continuous steps: 1) the HPK1 enzymatic kinase reaction, 2) an ATP depletion, and 3) the ADP detection, the steps 2 and 3 are performed with ADP-Glo™ Kinase Assay kit from Promega (V9101). Test compounds were prepared by 10-point serial dilution in dimethyl sulfoxide (DMSO) and 100 nL of each dilution was spotted onto a 384-well Optiplate (Perkin Elmer and Cat #6007299) by Labcyte Echo. 5 μL kinase reaction buffer (0.02% Brij-35, 2 mM DTT, 50 mM HEPES pH 7.5, MgCl2 10 mM, BSA 0.01% and O-glycerophosphate 12.5 mM) containing HPK1 (3.2 nM) enzyme was transferred to each well and incubated for 15 minutes at room temperature at 60% humidity. The enzymatic reaction was started by adding 5 μl of Start-Mix (10 μM ATP and 3.235 μM MBP). After 120 minutes, the reaction was stopped by adding 5 μL of ADP-Glo reagent (Promega, V9101) and incubating for 40 min. in the dark at 23° C. To determine the level of ADP, 10 μl ADP-Glo Detection solution was added and incubated for 1 hour at 23° C. in the dark. The plate was transferred to a Perkin Elmer EnVision (2104 Multilabel Reader) for luminescence detection and percent inhibition activity and IC50 value were determined using Genedata Screener.

Sequence of full-length human HPK1 (MAP4K1) (Q92918 whole entry): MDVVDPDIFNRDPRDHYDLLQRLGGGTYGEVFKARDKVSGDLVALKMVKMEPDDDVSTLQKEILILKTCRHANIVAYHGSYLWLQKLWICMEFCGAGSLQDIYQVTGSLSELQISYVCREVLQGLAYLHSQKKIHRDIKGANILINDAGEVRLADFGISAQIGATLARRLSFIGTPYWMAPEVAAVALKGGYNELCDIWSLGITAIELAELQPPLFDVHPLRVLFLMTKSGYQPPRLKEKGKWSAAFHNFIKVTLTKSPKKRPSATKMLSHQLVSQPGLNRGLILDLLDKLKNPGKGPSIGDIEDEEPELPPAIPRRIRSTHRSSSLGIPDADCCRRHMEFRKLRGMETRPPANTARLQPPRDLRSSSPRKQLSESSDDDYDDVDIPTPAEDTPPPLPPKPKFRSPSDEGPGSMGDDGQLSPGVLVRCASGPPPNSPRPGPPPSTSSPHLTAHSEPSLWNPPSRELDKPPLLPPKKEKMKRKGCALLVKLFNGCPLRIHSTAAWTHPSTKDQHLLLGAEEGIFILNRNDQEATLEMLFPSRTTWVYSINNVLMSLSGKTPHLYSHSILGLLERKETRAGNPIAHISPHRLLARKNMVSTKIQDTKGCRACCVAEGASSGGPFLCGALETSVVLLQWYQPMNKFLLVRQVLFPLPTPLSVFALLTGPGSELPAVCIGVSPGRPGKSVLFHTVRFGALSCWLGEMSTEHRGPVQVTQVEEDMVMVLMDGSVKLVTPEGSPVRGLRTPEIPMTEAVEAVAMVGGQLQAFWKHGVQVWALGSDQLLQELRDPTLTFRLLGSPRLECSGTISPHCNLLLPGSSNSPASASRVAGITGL

SMILES | IC50 [nM]
Cc1c(N2CCc3cnc(Nc4ccc(C(=O)N5CC[C@@H](N(C)C)C5)cc4)cc3C2)cnc2c1NCCO2 [Example 11, N-{4-[(3R)-3-(dimethylamino)pyrrolidine-1-carbonyl]phenyl}-6-{8-methyl-1H,2H,3H-pyrido[2,3-b][1,4]oxazin-7-yl}-5,6,7,8-tetrahydro-2,6-naphthyridin-3-amine] | < 100
Cc1c(N2CCc3cnc(Nc4cc5n(n4)CC(=O)N(C)CC5)nc3C2)cnc2c1NCCO2 [Example 22, 6-methyl-2-[(7-{8-methyl-1H,2H,3H-pyrido[2,3-b][1,4]oxazin-7-yl}-5H,6H,7H,8H-pyrido[3,4-d]pyrimidin-2-yl)amino]-4H,5H,6H,7H,8H-pyrazolo[1,5-d][1,4]diazepin-7-one] | 100 to 1000
Cc1cc(Nc2ncc3c(n2)CN(c2cnc4c(c2C)NCCO4)CC3)cnc1N(C)CCN1CCOCC1 [Example 43, N2,3-dimethyl-N5-(7-{8-methyl-1H,2H,3H-pyrido[2,3-b][1,4]oxazin-7-yl}-5H,6H,7H,8H-pyrido[3,4-d]pyrimidin-2-yl)-N2-[2-(morpholin-4-yl)ethyl]pyridine-2,5-diamine] | < 100
Cc1c(N2CCc3cnc(Nc4ccnc(N5CCOCC5)c4)cc3C2)cnc2c1NCCO2 [Example 54, 6-(8-methyl-2,3-dihydro-1H-pyrido[2,3-b][1,4]oxazin-7-yl)-N-(2-morpholinopyridin-4-yl)-5,6,7,8-tetrahydro-2,6-naphthyridin-3-amine] | < 100
Cc1c(N2CCc3cnc(Nc4ccc(CN5CCN(C)CC5)cc4)nc3C2)cnc2c1NCCO2 [Example 64, 7-{8-methyl-1H,2H,3H-pyrido[2,3-b][1,4]oxazin-7-yl}-N-{4-[(4-methylpiperazin-1-yl)methyl]phenyl}-5H,6H,7H,8H-pyrido[3,4-d]pyrimidin-2-amine] | < 100
Cc1c(N2CCc3cnc(NC4CCN(Cc5cnn(C)c5)CC4)nc3C2)cnc2c1NCCO2 [Example 70, N-(7-{8-methyl-1H,2H,3H-pyrido[2,3-b][1,4]oxazin-7-yl}-5H,6H,7H,8H-pyrido[3,4-d]pyrimidin-2-yl)-1-[(1-methyl-1H-pyrazol-4-yl)methyl]piperidin-4-amine] | > 1000
Cc1c(N2CCc3cnc(Nc4ccnc(S(C)(=O)=O)c4)nc3C2)cnc2c1NCCO2 [Example 75, 7-(8-methyl-2,3-dihydro-1H-pyrido[2,3-b][1,4]oxazin-7-yl)-N-(2-(methylsulfonyl)pyridin-4-yl)-5,6,7,8-tetrahydropyrido[3,4-d]pyrimidin-2-amine] | < 100
Cc1c(N2CCc3cnc(Nc4cnc5c(c4)CN(C)CC5)nc3C2)cnc2c1OCCO2 [Example 95, 7-(8-methyl-2,3-dihydro-[1,4]dioxino[2,3-b]pyridin-7-yl)-N-(6-methyl-5,6,7,8-tetrahydro-1,6-naphthyridin-3-yl)-5,6,7,8-tetrahydropyrido[3,4-d]pyrimidin-2-amine] | < 100
Cc1c(N2CCc3cnc(Nc4cnc5c(c4)CN(C)CC5)nc3C2)cnc2c1N(C)CCO2 [Example 101, 7-(1,8-dimethyl-2,3-dihydro-1H-pyrido[2,3-b][1,4]oxazin-7-yl)-N-(6-methyl-5,6,7,8-tetrahydro-1,6-naphthyridin-3-yl)-5,6,7,8-tetrahydropyrido[3,4-d]pyrimidin-2-amine] | < 100
COc1cccc(F)c1N1CCc2cnc(Nc3ccc(C4CCN(C)CC4)cc3)nc2C1 [Example 117, 7-(2-fluoro-6-methoxyphenyl)-N-(4-(1-methylpiperidin-4-yl)phenyl)-5,6,7,8-tetrahydropyrido[3,4-d]pyrimidin-2-amine] | < 100
Cc1c(N2CCc3cnc(Nc4ccc(CN5CC(C)(O)C5)cc4)nc3C2)cnc2c1NCCO2 [Example 123, 3-methyl-1-(4-((7-(8-methyl-2,3-dihydro-1H-pyrido[2,3-b][1,4]oxazin-7-yl)-5,6,7,8-tetrahydropyrido[3,4-d]pyrimidin-2-yl)amino)benzyl)azetidin-3-ol] | 100 to 1000
Cc1c(N2CCc3cnc(Nc4ccc(CCO)cc4)nc3C2)cnc2c1NCCO2 [Example 134, 2-{4-[(7-{8-methyl-1H,2H,3H-pyrido[2,3-b][1,4]oxazin-7-yl}-5H,6H,7H,8H-pyrido[3,4-d]pyrimidin-2-yl)amino]phenyl}ethan-1-ol] | < 100
CS(=O)(=O)Cc1ccc(Nc2ncc3c(n2)CN(c2cnc4cnccn24)CC3)cc1 [Example 136, 7-{imidazo[1,2-a]pyrazin-3-yl}-N-[4-(methanesulfonylmethyl)phenyl]-5H,6H,7H,8H-pyrido[3,4-d]pyrimidin-2-amine] | > 1000
COCCOCCS(=O)(=O)Cc1ccc(Nc2ncc3c(n2)CN(c2cnc4c(c2C)NCCO4)CC3)cc1 [Example 137, N-(4-{[2-(2-methoxyethoxy)ethanesulfonyl]methyl}phenyl)-7-{8-methyl-1H,2H,3H-pyrido[2,3-b][1,4]oxazin-7-yl}-5H,6H,7H,8H-pyrido[3,4-d]pyrimidin-2-amine] | < 100

More lines, now with the values ahead:

IC50 [nM] | SMILES
100 to 1000 | Cc1c(N2CCc3cnc(Nc4ccc(NC(=O)C5(C)COC5)nc4)nc3C2)cnc2c1NCCO2 [Example 8, 3-methyl-N-{5-[(7-{8-methyl-1H,2H,3H-pyrido[2,3-b][1,4]oxazin-7-yl}-5H,6H,7H,8H-pyrido[3,4-d]pyrimidin-2-yl)amino]pyridin-2-yl}oxetane-3-carboxamide]
< 100 | Cc1c(N2CCc3cnc(Nc4ccc5c(c4)CCN(C)CC5)nc3C2)cnc2c1NCCO2 [Example 62, 3-methyl-N-(7-{8-methyl-1H,2H,3H-pyrido[2,3-b][1,4]oxazin-7-yl}-5H,6H,7H,8H-pyrido[3,4-d]pyrimidin-2-yl)-2,3,4,5-tetrahydro-1H-3-benzazepin-7-amine]
100 to 1000 | COCc1cncc(N2CCc3cnc(Nc4ccc(C5CCOCC5)c(CO)c4)nc3C2)c1 [Example 78, (5-((7-(5-(methoxymethyl)pyridin-3-yl)-5,6,7,8-tetrahydropyrido[3,4-d]pyrimidin-2-yl)amino)-2-(tetrahydro-2H-pyran-4-yl)phenyl)methanol]
> 1000 | Cc1cnsc1N1CCc2cnc(Nc3cc4n(n3)CC(=O)N(C(C)C)CC4)nc2C1 [Example 86, 2-{[7-(4-methyl-1,2-thiazol-5-yl)-5H,6H,7H,8H-pyrido[3,4-d]pyrimidin-2-yl]amino}-6-(propan-2-yl)-4H,5H,6H,7H,8H-pyrazolo[1,5-d][1,4]diazepin-7-one; trifluoroacetic acid]
< 100 | Cc1c(N2CCc3cnc(Nc4cnc5c(c4)CN(C)CC5)nc3C2)cnc2c1NC(=O)CO2 [Example 88, 8-methyl-7-(2-((6-methyl-5,6,7,8-tetrahydro-1,6-naphthyridin-3-yl)amino)-5,8-dihydropyrido[3,4-d]pyrimidin-7(6H)-yl)-1H-pyrido[2,3-b][1,4]oxazin-2(3H)-one]
< 100 | CN1CCc2ncc(Nc3ncc4c(n3)CN(c3cnn(C)c3)CC4)cc2C1 [Example 114, 7-(1-methyl-1H-pyrazol-4-yl)-N-(6-methyl-5,6,7,8-tetrahydro-1,6-naphthyridin-3-yl)-5,6,7,8-tetrahydropyrido[3,4-d]pyrimidin-2-amine]
100 to 1000 | CN1CCc2ncc(Nc3ncc4c(n3)CN(c3ccccn3)CC4)cc2C1 [Example 129, 6-methyl-N-[7-(pyridin-2-yl)-5H,6H,7H,8H-pyrido[3,4-d]pyrimidin-2-yl]-5,6,7,8-tetrahydro-1,6-naphthyridin-3-amine]

From patent publication US20240025922A1, “TETRAHYDROPYRIDO[3,4-d]PYRIMIDINES AS HPK1 INHIBITORS” (Merck Patent GmbH, priority 2022, published 2024)
